In patent publication US20090069419A1, “MASKED CARBOXYLATE NEOPENTYL SULFONYL ESTER CYCLIZATION RELEASE PRODRUGS OF ACAMPROSATE, COMPOSITIONS THEREOF, AND METHODS OF USE” (priority 2007, published 2009):

Experiments:
[1] = test system: cocaine conditioned mice; settings: 100 mg/kg for 3 days; cited from earlier work
[2] = doses of about 1-2 gm per day, cited from earlier work
[3] = cited from earlier work

Compound | melting point [°C] | relapse-like behavior [1] | steady-state plasma concentration [2] [ng/mL] | time at which steady-state plasma concentration occurs ([2]; post-dose) [h] | mean elimination half-life ([3]; following intravenous infusion (15 min)) [h] | oral bioavailability ([3]; humans, oral)
CC(=O)NCCCS(=O)(=O)OCC(C)(C)CCC(=O)O [Compound 28, 5-{[3-(Acetylamino)propyl]sulfonyloxy}-4,4-dimethylpentanoic Acid] | 105.3 to 124.9 |  |  |  |  | 
CC(=O)NCCCS(=O)(=O)O [acamprosate, 3-(Acetylamino)propylsulfonic acid] |  | attenuated relapse-like behavior | 370 to 640 | 3 to 8 | 3.2 ± 0.2 | about 11%
